Reference: patent US20120130144A1, “TREATMENT OF LUNG CANCER WITH A NITROBENZAMIDE COMPOUND IN COMBINATION WITH A GROWTH FACTOR INHIBITOR” (BiPar Sciences, Inc., priority 2009, published 2012)
Entries after “also recorded” stand apart in the source; their conditions may differ. Read-outs that look alike come from different tables or passages of the source.

How the values were obtained:
[1] = tested on: HCC827 non-small cell lung carcinoma cells; assay: FACS cell cycle analysis by DNA content and BrdU incorporation, Example 1A; format: cell-based; parameters: key to Sub-G1 / G1: % of cells in cell cycle phase; conditions: for BrdU (−) S / G1 / G2/M / S / Sub-G1: HCC827 (NSCLC), GFT 0 nM, 72 hours
Method: (§1) HCC827 non-small cell lung carcinoma cells were obtained from ATCC, Rockville, Md. […] Central dose rate of approximately 1.30 Gy/minute (130 rad/minute).
(§2) After the addition of the compounds as described above, irradiation and incubation, cells were trypsinized and aliquots of the samples were taken for counting and PI (Propidium Iodide) exclusion assay. One part of the cells was centrifuged and resuspended in 0.5 ml ice-cold PBS containing 5 ug/ml of PI. The other part of the cells was fixed in ice-cold 70% ethanol and stored in a freezer overnight. For cell cycle analysis, cells were stained with propidium iodide (PI) by standard procedures. Cellular DNA content was determined by flow cytometry using BD LSRII FACS, and the percentages of cells in G1, S or G2/M were determined using ModFit software.
All cell samples were analyzed as described in [5,6] using a BD LSR II or BD Aria (BD Biosciences, San Jose, Calif.). All flow cytometry analyses were carried out using triplicate samples containing at least 30,000 cells each and the final percentages of the cell cycle distribution were normalized to singlets viable cell population, excluding cell debris and polyploid cells according established procedure.
50 μl of BrdU (Sigma Chemical Co., St. Louis, Mo.) stock solution (1 mM) was added to achieve final concentration of 10 μM BrdU. Then cells were incubated for 30 min at 37° C. and fixed in ice-cold 70% ethanol and stored at 4° C. overnight. Fixed cells were centrifuged and washed once in 2 ml PBS, then resuspended in 0.7 ml of denaturation solution (0.2 mg/ml pepsin in 2 N HCl) for 15 min at 37° C. in the dark, then 1.04 ml 1M Tris buffer (Trizma base, Sigma Chemical Co.) was added to terminate the hydrolysis. Cells were washed in 2 ml PBS and resuspended in 100-μ1(1:100 dilution) of anti-BrdU antibody (DakoCytomation, Carpinteria, Calif.) in TBFP permeable buffer (0.5% Tween-20, 1% bovine serum albumin and 1% fetal bovine serum in PBS), incubated for 25 min at room temperature in the dark and washed in 2 ml PBS. The primary antibody-labeled cells were resuspended in 100 μl ALEXA FLUOR® F(ab)2, fragment of goat anti-mouse IgG (H+L) (1:200 dilution, 2 mg/mL, Molecular Probes, Eugene, Oreg.) in TBFP buffer and incubated for 25 min at room temperature in the dark and washed in 2 ml PBS, then resuspended in 0.5 ml ice-cold PBS containing 1 μg/ml 4′,6-diamidino-2-phenylindole (DAPI) for at least 30 min [3, 6].

[2] = tested on: HCC827 non-small cell lung carcinoma cells; assay: TUNEL apoptosis detection (FACS), Example 1A; format: cell-based; conditions: for TUNEL (+): HCC827 (NSCLC), GFT 0 nM, 72 hours
Excerpt: as §1
The cells were labeled for apoptosis detection with the “In Situ Cell Death Detection Kit, Fluorescein” (Roche Diagnostics Corporation, Roche Applied Science, Indianapolis, Ind.) and analyzed based on the modified protocol from Dr. Darzynkiewicz laboratory. Briefly, fixed cells were centrifuged and washed once in phosphate-buffered saline (PBS) containing 1% bovine serum albumin (BSA), then resuspended in 2 ml permeabilization buffer (0.1% Triton X-100 and 0.1% sodium citrate in PBS) for 25 min at room temperature and washed twice in 0.2 ml PBS/1% BSA. The cells were resuspended in 50 μl TUNEL reaction mixture (TdT enzyme and labeling solution) and incubated for 60 min at 37° C. in a humidified dark atmosphere in an incubator. The labeled cells were washed once in PBS/1% BSA, then resuspended in 0.5 ml ice-cold PBS containing 1 μg/ml 4′,6-diamidino-2-phenylindole (DAPI) for at least 30 min. All cell samples were analyzed with a BD LSR II (BD Biosciences, San Jose, Calif.) and the final percentages of the cell cycle distribution were normalized to singlets viable cell population, excluding cell debris and polyploid cells according established procedure. All flow cytometry analyses were carried out using triplicate samples containing at least 30,000 cells each (typical results of 3 or more independent experiments are shown).

HCC827 cells [3] = assay: TUNEL apoptosis assay (FACS), Example 1; format: cell-based; conditions: GFT 0 nM, 72 hours
Method: Lung adenocarcinoma HCC827 cells are cultured in Dulbecco Modified Eagle Medium with 10% fetal bovine serum. […] Cells are plated at a seeding density 10^5 per P100 or at 10^4 per P60 in growth media and incubated 12-18 h at 37° C., 5% CO2. BA and the EGFR inhibitor, IRESSA, are added as a single dose for 72 hours. DMSO is used as a control. […] Following treatment, cells are analyzed with BrdU ELISA assay (Roche Applied Science), FACS based cell cycle assay or TUNEL.
To detect apoptosis, the cells are labeled with the “In Situ Cell Death Detection Kit, Fluorescein” (Roche Diagnostics Corporation, Roche Applied Science, Indianapolis, Ind.). Briefly, fixed cells are centrifuged and washed once in phosphate-buffered saline (PBS) containing 1% bovine serum albumin (BSA), then resuspended in 2 ml permeabilization buffer (0.1% Triton X-100 and 0.1% sodium citrate in PBS) for 25 min at room temperature and washed twice in 0.2 ml PBS/1% BSA. The cells are resuspended in 50 μl TUNEL reaction mixture (TdT enzyme and labeling solution) and incubated for 60 min at 37° C. in a humidified dark atmosphere in an incubator. The labeled cells are washed once in PBS/1% BSA, then resuspended in 0.5 ml ice-cold PBS containing 1 μg/ml 4′,6-diamidino-2-phenylindole (DAPI) for at least 30 min. All cell samples are analyzed with a BD LSR II (BD Biosciences, San Jose, Calif.). […]

[4] = tested on: HCC827 non-small cell lung carcinoma cells; assay: Number of vital (proliferating) cells relative to control, Example 1A; format: cell-based; conditions: for Live Cell: HCC827 (NSCLC), GFT 0 nM, 72 hours, percentage relative to control
Method: as §1
Following treatment, the number of vital cells was measured. Percentage of the vital (proliferating) cells under different treatments was calculated relative to the control (untreated) cells.
as §2

HCC827 cells [5] = assay: Viable cell count / growth of HCC827 cells, Example 1; format: cell-based
Method: Lung adenocarcinoma HCC827 cells are cultured in Dulbecco Modified Eagle Medium with 10% fetal bovine serum. […] Cells are plated at a seeding density 10^5 per P100 or at 10^4 per P60 in growth media and incubated 12-18 h at 37° C., 5% CO2. BA and the EGFR inhibitor, IRESSA, are added as a single dose for 72 hours. DMSO is used as a control. Cells are irradiated with 3Gy and 5Gy gamma-irradiation using γ-Irradiator Gammacell 40 Exactor (MDS Nordion, Canada). Following treatment, cells are analyzed with BrdU ELISA assay (Roche Applied Science), FACS based cell cycle assay or TUNEL.
as §2, with “drugs,” for “the compounds as described above,”, “are” for “were trypsinized and aliquots of the samples were”, “is” for “was”, “μg/ml” for “ug/ml”, “are” for “were”, “as described hereinabove.” for “by standard procedures.”

[6] = in vivo; cited from earlier work
HCC827 cells [7] = assay: FACS-based cell cycle analysis (PI/BrdU), Example 1; conditions: GFT 0 nM, 72 hours; for G1 / G2/M / S: percentage of cells
Method: After the addition of drugs, irradiation and incubation, cells are taken for counting and PI (Propidium Iodide) exclusion assay. One part of the cells is centrifuged and resuspended in 0.5 ml ice-cold PBS containing 5 μg/ml of PI. The other part of the cells is fixed in ice-cold 70% ethanol and stored in a freezer overnight. For cell cycle analysis, cells are stained with propidium iodide (PI) as described hereinabove. Cellular DNA content is determined by flow cytometry using BD LSRII FACS, and the percentages of cells in G1, S or G2/M are determined using ModFit software.
50 μl of BrdU (Sigma Chemical Co., St. Louis, Mo.) stock solution (1 mM) is added to achieve final concentration of 10 μM BrdU. Then cells are incubated for 30 min at 37° C. and fixed in ice-cold 70% ethanol and stored at 4° C. overnight. Fixed cells are centrifuged and washed once in 2 ml PBS, then resuspended in 0.7 ml of denaturation solution (0.2 mg/ml pepsin in 2 N HCl) for 15 min at 37° C. in the dark, then 1.04 ml 1M Tris buffer (Trizma base, Sigma Chemical Co.) is added to terminate the hydrolysis. Cells are washed in 2 ml PBS and resuspended in 100-μl (1:100 dilution) of anti-BrdU antibody (DakoCytomation, Carpinteria, Calif.) in TBFP permeable buffer (0.5% Tween-20, 1% bovine serum albumin and 1% fetal bovine serum in PBS), incubated for 25 min at room temperature in the dark and washed in 2 ml PBS. The primary antibody-labeled cells are resuspended in 100 μl ALEXA FLUOR® F(ab′)2 fragment of goat anti-mouse IgG (H+L) (1:200 dilution, 2 mg/mL, Molecular Probes, Eugene, Oreg.) in TBFP buffer and incubated for 25 min at room temperature in the dark and washed in 2 ml PBS, then resuspended in 0.5 ml ice-cold PBS containing 1 μg/ml 4′,6-diamidino-2-phenylindole (DAPI) for at least 30 min. All cell samples are analyzed with a BD LSR II (BD Biosciences, San Jose, Calif.). All flow cytometry analyses are carried out using triplicate samples containing at least 30,000 cells each (typical results of independent experiments are shown).

NSCLC tumors = conditions: after failure of chemotherapy, cited from earlier work
HCC827 cells [8] = assay: CellTiter 96 Aqueous Cell Proliferation Assay (MTS), Example 2; format: cell-based; conditions: in combination with BA (100 μM and 50 μM), 72 hours
[9] = tested on: locally advanced or metastatic pancreatic cancer; conditions: cited from earlier work
chemo-refractory NSCLC = conditions: phase II, monotherapy, 57 evaluable patients; cited from earlier work
NSCLC = conditions: cited from earlier work
VEGF = conditions: human, in vivo; cited from earlier work
VEGF, sequence (P15692 207-311 limits assumed): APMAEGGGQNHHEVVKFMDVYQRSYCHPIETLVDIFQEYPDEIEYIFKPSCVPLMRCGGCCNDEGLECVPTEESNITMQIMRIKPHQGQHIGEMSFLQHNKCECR

[10] = gefitinib-treated HCC827 cells, FIG. 2c
[11] = Homo sapiens, HCC827, 72 h, read-out: Viable Cell
[12] = Caucasian patients with NSCLC tumors
[13] = combination treatment arm (TARCEVA with gemcitabine)
[14] = phase III versus placebo, NSCLC after failed prior chemotherapy

In the case of `NC(=O)c1ccc(I)c([N+](=O)[O-])c1` [BA, 4-iodo-3-nitrobenzamide], the “BrdU (−) S” value ([1]; BA 50 uM) is reported as 1.95, the G1 ([1]; BA 50 uM) is reported as 46.26 and the G2/M ([1]; BA 50 uM) is reported as 8.82. The S ([1]; BA 50 uM) was 40.62, the Sub-G1 ([1]; BA 50 uM) was 2.36 and the “BrdU (−) S” value ([1]; BA 100 uM) was 8.05. The G1 ([1]; BA 100 uM) was 43.76, the G2/M ([1]; BA 100 uM) was 12.49 and the S ([1]; BA 100 uM) was 19.92. For the same compound, the Sub-G1 ([1]; BA 100 uM) was 15.79, the cell cycle arrest ([1]; gefitinib treated HCC827 cells) was “enhanced cell cycle arrest” and the “number of cells in G1 and S phases of cell cycle” value [1, 10] was “reduced number of cells in G1 and S phases”. For the same compound, the “number of dead cells (sub-G1)” value [1, 10] was “induced number of dead cells (sub-G1)”, the “TUNEL (+)” value ([2]; BA 50 uM) was 5.7 and the “TUNEL (+)” value ([2]; BA 100 uM) was 32.8. The apoptosis ([2]; gefitinib treated HCC827 cells) was “induced apoptosis”, the “TUNEL (+)” value (HCC827 cells [3]; BA 50 uM) was 5.7 and the “TUNEL (+)” value (HCC827 cells [3]; BA 100 uM) was 32.8. For the same compound, the “Live Cell” value ([4]; BA 50 uM) was 65, the “Live Cell” value ([4]; BA 100 uM) was 25 and the “effect of BA on antiproliferative effect of growth factor inhibitors” value ([4]; HCC827 cells, FIG. 2a-2c) was “potentiates antiproliferative effect of growth factor inhibitors”. The “effect of BA on antitumor activity of gefitinib” value ([4]; non-small lung carcinoma cells) was “potentiates antitumor activity of gefitinib”, the “effect of BA on the activity of gefitinib (IRESSA)” value (HCC827 cells [5]; HCC827 cell line, FIG. 1) was “potentiates the activity of gefitinib; also recorded: potentiates the activity of the EGFR inhibitor, IRESSA” and the viability at 50 µM (HCC827 cells [5]; [11]) was 65%. The viability at 100 µM (HCC827 cells [5]; [11]) was 25%, the “crossing of the blood-brain barrier” value [6] was “known to cross the blood-brain barrier” and the distribution into tissues [6] was “distributes rapidly and widely into tissues, including the brain and cerebrospinal fluid (CSF)”. For the same compound, the Sub-G1 (HCC827 cells [7]; BA 50 uM) was 2.4, the G1 (HCC827 cells [7]; BA 50 uM) was 46.3 and the G2/M (HCC827 cells [7]; BA 50 uM) was 8.8. The S (HCC827 cells [7]; BA 50 uM) was 40.6, the Sub-G1 (HCC827 cells [7]; BA 100 uM) was 15.8 and the G1 (HCC827 cells [7]; BA 100 uM) was 43.8. The G2/M (HCC827 cells [7]; BA 100 uM) was 12.5 and the S (HCC827 cells [7]; BA 100 uM) was 19.9.

For `NC(=O)c1ccc(I)c(N=O)c1` [BNO, 4-iodo-3-nitrosobenzamide], the “BrdU (−) S” value ([1]; BNO 25 uM) was 1.30, the G1 ([1]; BNO 25 uM) was 61.10 and the G2/M ([1]; BNO 25 uM) was 7.20. For the same compound, the S ([1]; BNO 25 uM) was 29.30, the Sub-G1 ([1]; BNO 25 uM) was 1.10 and the “BrdU (−) S” value ([1]; BNO 50 uM) was 3.50. For the same compound, the G1 ([1]; BNO 50 uM) was 38.74, the G2/M ([1]; BNO 50 uM) was 11.41 and the S ([1]; BNO 50 uM) was 44.24. The Sub-G1 ([1]; BNO 50 uM) was 2.10, the “TUNEL (+)” value ([2]; BNO 25 uM) was 2.9 and the “TUNEL (+)” value ([2]; BNO 50 uM) was 7.7. For the same compound, the “Live Cell” value ([4]; BNO 25 uM) was 76 and the “Live Cell” value ([4]; BNO 50 uM) was 40.

For `COc1cc2ncnc(Nc3ccc(F)c(Cl)c3)c2cc1OCCCN1CCOCC1` [GFT, gefitinib], the major objective responses (NSCLC tumors; [12]) is listed as “approximately 10%” and the major objective responses (NSCLC tumors; Japanese patients with NSCLC tumors) is listed as 25-30%.

For `COC(=O)[C@@]1(O)C[C@H]2O[C@]1(C)n1c3ccccc3c3c4c(c5c6ccccc6n2c5c31)C(=O)NC4` [K252a, (9S-(9α,10β,12α))-2,3,9,10,11,12-hexahydro-10-hydroxy-10-(methoxycarbonyl)-9-methyl-9,12-epoxy-1H-diindolo[1,2,3-fg:3′,2′,1′-kl]pyrrolo[3,4-i][1,6]benzodiazocin-1-one], the “effect of BA on antiproliferative effects of growth factor receptors inhibitors” value (HCC827 cells [8]) was “potentiation of antiproliferative effects”.

In the case of `COc1cc([C@@H]2c3cc4c(cc3[C@H](O)[C@H]3COC(=O)[C@@H]23)OCO4)cc(OC)c1OC` [PPP, (5R,5aS,8aR,9R)-5,8,8a,9-Tetrahydro-9-hydroxy-5-(3,4,5-trimethoxyphenyl)-furo[3′,′: 6,7]naphtho[2,3-d]-1,3-dio xol-6(5aH)-one], the “effect of BA on antiproliferative effects of growth factor receptors inhibitors” value (HCC827 cells [8]) is reported as “potentiation of antiproliferative effects”.

For `C#Cc1cccc(Nc2ncnc3cc(OCCOC)c(OCCOC)cc23)c1` [TARCEVA, erlotinib], the Median survival [9, 13] is listed as 6.4 months, the one-year survival [9, 13] is listed as 25.6% and the “improvement in overall survival” value ([9]; in combination with gemcitabine, compared with gemcitabine alone) is listed as 23.5%. The major objective responses (NSCLC tumors; [12]) was “approximately 10%”, the “patients achieving disease stabilisation” value (chemo-refractory NSCLC) was 51% and the “patients surviving for at least 12 months” value (chemo-refractory NSCLC) was 40%. For the same compound, the “patients affected by rash” value (NSCLC; NSCLC primary registration trial) was 75%, the tolerability (NSCLC; clinical trials) was “generally well tolerated” and the “improvement in median survival” value (NSCLC; [14]) was 42%. The “improvement in one-year survival” value (NSCLC; [14]) was 45%.

For `Nc1ccn([C@@H]2O[C@H](CO)[C@@H](O)C2(F)F)c(=O)n1` [gemcitabine], the Median survival ([9]; gemcitabine plus placebo) is given as 5.9 months and the one-year survival ([9]; gemcitabine plus placebo) is given as 19.7%.

In the case of “bevacizumab: first anti-VEGF drug, a monoclonal antibody”, the “patients who benefit from therapy” value (VEGF) is listed as 10-15%.
